Like-named read-outs stand apart in the source and are kept apart here. Values belong to the compound of their own block, whether it stands above or below them.
Experiments:
CDC25 = details: literature reports; cited from earlier work
CDC25C = target: T1, CDC25C (Homo sapiens, UniProt P30307); assay: CDC25C Enzyme Assay (hydrolysis of fluorogenic substrate OMFP); assay type: biochemical
T1 sequence (P30307 1-473): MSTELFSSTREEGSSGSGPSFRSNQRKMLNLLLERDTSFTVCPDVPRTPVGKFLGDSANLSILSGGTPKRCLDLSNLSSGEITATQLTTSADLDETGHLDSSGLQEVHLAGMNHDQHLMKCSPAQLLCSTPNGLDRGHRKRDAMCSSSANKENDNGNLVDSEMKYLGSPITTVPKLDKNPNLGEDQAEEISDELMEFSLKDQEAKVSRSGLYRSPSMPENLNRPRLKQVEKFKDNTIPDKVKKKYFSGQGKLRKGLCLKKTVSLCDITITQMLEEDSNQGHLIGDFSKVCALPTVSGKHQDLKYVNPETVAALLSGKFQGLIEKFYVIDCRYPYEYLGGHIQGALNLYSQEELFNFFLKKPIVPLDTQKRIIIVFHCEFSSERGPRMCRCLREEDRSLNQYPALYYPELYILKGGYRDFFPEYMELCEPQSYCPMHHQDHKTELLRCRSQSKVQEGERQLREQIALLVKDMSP
Procedure: The assay principle was hydrolysis of an artificial fluorogenic substrate of CDC25C, 3-0-methyl-fluorescein monophosphate (OMFP). […] The assay was performed in 96 well microtiter plates (Greiner 96 well black FIA plates) at ambient temperature.
The additions to the wells were as follows: 1 Addition of 4 µl of a DMSO solution of the test compound; controls received 4 µl of DMSO instead 2 Addition of 76 µl assay buffer (assay buffer: 100 mM Tris pH 8.2, 40 mM NaCl. 5 mM DTT, 20% glycerol) 3 Addition of 10 µl CDC25 C (CDC25 C in assay buffer; protein final concentration 1.1 µg/mL) 4 Start of reaction by addition of 10 µl OMFP (substrate in assay buffer; final concentration of OMFP in assay: 90 µM )
Ortho-vanadate was used as a reference inhibitor. Background controls contained buffer, substrate and DMSO, but no enzyme. The microtiter plates were analyzed using a Tecan Ultra fluorescence reader.

[1] = test system: leukemia cell line (P388); assay: In vitro cell assays against a leukemia cell line; assay type: cell-based; details: result in words
HCT116 = assay: Cell proliferation Assay (Alamar Blue), HCT116; assay type: cell-based; details: Homo sapiens, HCT-116, 72 hrs
Procedure: (§1) Used cell lines: HCT116; DU145; A549, H460 In a 96-well plate, 3000 cells/well were plated in 100 µl DMEM containing 10% FBS, 10 mM HEPES and 1% Penicllin/Streptomycin. To each well 50 µl of additional growth media containing the compound with 0.1% DMSO was added. Cells were grown for 72 hrs. at 37°C. 20 µl of Alamar Blue reagent was added and incubated for 3-5 hours until color develops. Plates were read in a SpectraMax Gemini (Molecular Devices, CA) with 544 nm excitation and 590 nm emission wavelength.

DU145 = assay: Cell proliferation Assay (Alamar Blue), DU145; assay type: cell-based; details: Homo sapiens, DU-145, 72 hrs
Procedure: as §1

A549 = assay: Cell proliferation Assay (Alamar Blue), A549; assay type: cell-based; details: Homo sapiens, 72 hrs
Procedure: as §1, with “wavelength. Table #5: Results assay #2” for “wavelength.”

H460 = assay: Cell proliferation Assay (Alamar Blue), H460; assay type: cell-based; details: Homo sapiens, NCI-H460, 72 hrs
Procedure: as §1

CDC25A = target: T2, CDC25A (Homo sapiens, UniProt P30304); assay: CDC25A inhibition assay (sub-type selectivity); assay type: biochemical; details: after 20 minutes of pre-incubation; read-out: IC50 against CDC25A
T2 sequence (P30304 1-524): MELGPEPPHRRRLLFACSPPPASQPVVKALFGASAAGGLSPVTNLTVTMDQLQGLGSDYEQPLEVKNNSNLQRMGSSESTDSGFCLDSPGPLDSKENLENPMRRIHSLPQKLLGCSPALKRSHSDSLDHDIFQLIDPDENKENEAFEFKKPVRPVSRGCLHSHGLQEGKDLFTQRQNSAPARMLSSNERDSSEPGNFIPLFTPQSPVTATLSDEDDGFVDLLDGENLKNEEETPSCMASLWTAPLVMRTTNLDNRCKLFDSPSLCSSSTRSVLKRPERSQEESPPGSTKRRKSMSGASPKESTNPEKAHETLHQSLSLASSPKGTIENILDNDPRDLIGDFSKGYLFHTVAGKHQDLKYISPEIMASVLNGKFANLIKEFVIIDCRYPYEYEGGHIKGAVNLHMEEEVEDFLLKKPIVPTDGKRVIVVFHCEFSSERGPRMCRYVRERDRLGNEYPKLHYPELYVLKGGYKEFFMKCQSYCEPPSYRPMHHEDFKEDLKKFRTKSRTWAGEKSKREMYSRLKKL
Source text: (§2) The compound of example 5 was thoroughly characterized towards its selectivity for CDC25 sub-types A, B, and C.

CDC25B = target: T3, CDC25B (Homo sapiens, UniProt P30305); assay: CDC25B inhibition assay (sub-type selectivity); assay type: biochemical; details: after 20 minutes of pre-incubation; read-out: IC50 against CDC25B
T3 sequence (P30305 1-580): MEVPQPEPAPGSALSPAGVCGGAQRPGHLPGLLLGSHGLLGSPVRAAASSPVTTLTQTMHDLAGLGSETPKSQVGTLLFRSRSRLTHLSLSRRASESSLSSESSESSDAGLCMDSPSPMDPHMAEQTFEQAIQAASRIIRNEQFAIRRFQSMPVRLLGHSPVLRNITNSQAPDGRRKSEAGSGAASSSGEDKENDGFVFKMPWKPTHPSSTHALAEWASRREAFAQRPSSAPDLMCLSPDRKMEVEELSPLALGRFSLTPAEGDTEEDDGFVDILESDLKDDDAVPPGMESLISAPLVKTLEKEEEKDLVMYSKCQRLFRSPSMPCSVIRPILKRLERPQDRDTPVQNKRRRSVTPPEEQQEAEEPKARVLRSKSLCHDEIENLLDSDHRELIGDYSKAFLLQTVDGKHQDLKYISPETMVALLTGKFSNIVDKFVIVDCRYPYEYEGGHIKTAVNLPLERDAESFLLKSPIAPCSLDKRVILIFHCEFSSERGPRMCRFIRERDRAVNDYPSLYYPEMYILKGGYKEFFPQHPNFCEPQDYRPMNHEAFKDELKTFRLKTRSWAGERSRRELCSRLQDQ
Source text: as §2

PTP1 B = target: T4, PTP1 B (Homo sapiens, UniProt P18031); assay: Phosphatase counter-screen against PTP1 B; assay type: biochemical
T4 sequence (P18031 1-435): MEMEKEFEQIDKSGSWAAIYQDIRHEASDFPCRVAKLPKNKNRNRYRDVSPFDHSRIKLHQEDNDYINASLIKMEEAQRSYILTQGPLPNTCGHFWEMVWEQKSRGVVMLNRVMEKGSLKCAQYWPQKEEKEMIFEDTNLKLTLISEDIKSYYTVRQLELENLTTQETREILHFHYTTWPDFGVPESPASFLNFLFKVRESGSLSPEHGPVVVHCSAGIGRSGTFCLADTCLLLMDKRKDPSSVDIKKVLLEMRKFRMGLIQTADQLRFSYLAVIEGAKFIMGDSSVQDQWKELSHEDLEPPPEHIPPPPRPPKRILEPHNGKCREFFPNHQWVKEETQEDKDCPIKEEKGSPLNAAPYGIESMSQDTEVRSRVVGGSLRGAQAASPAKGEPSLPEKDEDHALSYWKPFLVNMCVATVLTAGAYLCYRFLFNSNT

LAR (PTPRF) = LAR (PTPRF) (Homo sapiens, UniProt P10586); assay: Phosphatase counter-screen against LAR (PTPRF); assay type: biochemical
[2] = OMFP 90 µM, ambient temperature, assay run time 20 minutes, read-out: IC50

LAR (PTPRF), sequence (P10586 30-1907, species assumed): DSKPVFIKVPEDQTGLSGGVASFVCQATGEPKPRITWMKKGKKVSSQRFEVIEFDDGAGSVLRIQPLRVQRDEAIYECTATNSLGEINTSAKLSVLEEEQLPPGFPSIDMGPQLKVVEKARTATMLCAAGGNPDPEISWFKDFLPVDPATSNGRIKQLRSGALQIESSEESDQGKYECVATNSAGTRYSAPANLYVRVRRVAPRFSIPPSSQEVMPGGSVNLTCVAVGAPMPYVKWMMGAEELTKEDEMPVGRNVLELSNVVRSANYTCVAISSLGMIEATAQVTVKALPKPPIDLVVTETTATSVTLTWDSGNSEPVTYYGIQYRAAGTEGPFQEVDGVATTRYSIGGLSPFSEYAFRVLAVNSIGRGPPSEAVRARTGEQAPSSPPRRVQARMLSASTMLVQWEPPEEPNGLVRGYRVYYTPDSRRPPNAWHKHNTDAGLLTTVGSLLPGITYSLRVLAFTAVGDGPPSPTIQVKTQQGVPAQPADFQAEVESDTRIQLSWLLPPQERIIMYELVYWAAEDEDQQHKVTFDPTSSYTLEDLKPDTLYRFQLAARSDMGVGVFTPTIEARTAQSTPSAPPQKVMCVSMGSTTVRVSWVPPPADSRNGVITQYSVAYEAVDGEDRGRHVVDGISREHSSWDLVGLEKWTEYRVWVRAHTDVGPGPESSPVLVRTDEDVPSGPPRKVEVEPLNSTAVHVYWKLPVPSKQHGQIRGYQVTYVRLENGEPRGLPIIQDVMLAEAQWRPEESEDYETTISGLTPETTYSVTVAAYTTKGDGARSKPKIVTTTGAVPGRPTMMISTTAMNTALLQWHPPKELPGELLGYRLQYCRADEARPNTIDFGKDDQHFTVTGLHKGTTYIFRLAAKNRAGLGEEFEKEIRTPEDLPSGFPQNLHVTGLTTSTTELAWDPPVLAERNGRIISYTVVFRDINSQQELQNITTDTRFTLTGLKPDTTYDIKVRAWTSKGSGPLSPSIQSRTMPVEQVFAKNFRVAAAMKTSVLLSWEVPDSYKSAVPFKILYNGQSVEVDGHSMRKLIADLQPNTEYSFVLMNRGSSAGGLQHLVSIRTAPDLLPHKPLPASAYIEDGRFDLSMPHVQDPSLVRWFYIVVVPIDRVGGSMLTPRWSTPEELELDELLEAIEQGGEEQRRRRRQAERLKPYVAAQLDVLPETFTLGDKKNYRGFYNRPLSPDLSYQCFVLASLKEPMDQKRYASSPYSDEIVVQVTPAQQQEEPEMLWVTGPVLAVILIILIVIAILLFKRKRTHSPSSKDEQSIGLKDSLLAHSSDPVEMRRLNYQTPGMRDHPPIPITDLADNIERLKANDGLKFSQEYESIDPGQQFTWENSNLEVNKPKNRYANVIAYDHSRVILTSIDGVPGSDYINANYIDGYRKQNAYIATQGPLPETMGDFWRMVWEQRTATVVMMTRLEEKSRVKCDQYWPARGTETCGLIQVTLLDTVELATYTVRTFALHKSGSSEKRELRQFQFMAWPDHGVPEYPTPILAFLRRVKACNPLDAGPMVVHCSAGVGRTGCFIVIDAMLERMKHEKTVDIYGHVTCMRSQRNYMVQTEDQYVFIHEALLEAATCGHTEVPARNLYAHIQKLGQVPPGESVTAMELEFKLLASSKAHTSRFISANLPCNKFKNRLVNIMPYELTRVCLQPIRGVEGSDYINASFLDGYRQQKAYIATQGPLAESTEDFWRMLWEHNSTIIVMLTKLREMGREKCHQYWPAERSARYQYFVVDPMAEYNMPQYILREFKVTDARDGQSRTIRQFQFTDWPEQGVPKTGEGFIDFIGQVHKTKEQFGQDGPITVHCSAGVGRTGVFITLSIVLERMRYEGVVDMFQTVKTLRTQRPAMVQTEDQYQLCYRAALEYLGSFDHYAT

Compound: C=C(C)CCC[C@]1(C)CCC[C@@H]2C1=CC[C@@H](C)[C@@]2(C)C[C@@H](O)C1=CC(=O)O[C@H]1O [dysidiolide]
- inhibit CDC25 (CDC25): micromolar levels

Compound: nocardione
- inhibit CDC25 (CDC25): micromolar levels

Compound: Cn1c(=O)cc(CO)c2cc3c(CO)cc(=O)n4c3c(c21)OC4 [Example 4, 6'-hydroxynybomycin]
- IC50 (CDC25C; [2]): 14000 nM

Compound: Cc1cc(=O)n(C)c2c3c4c(cc12)c(C)cc(=O)n4CO3 [Example 2, deoxynybomycin]
- IC50 (CDC25C; [2]): > 10000 nM

Compound: Cc1cc(=O)n(C)c2c3c4c(c(C)cc(=O)n4CO3)c(O)c12 [Example 3, 7-hydroxy-deoxynybomycin]
- IC50 (CDC25C; [2]): 5000 nM

Compound: coscinosulfate
- inhibit CDC25 (CDC25): micromolar levels

Compound: Cc1cc(=O)[nH]c2c(O)c3c(cc12)c(C)cc(=O)n3C [Example 5, 10-hydroxy-1,4,6-trimethylpyndo[3,2-g]quino-line-2,8(1H,9H)-dione]
- IC50 (CDC25C; after 20 minutes of pre-incubation, read-out: IC50 against CDC25C): 180 nM
- IC50 (CDC25A): 150 nM
- IC50 (CDC25B): 230 nM
- selectivity for CDC25 subtypes in comparison to PTP1 B (PTP1 B): 13 fold
- selectivity for CDC25 subtypes in comparison to LAR (LAR (PTPRF)): 100 fold
- IC50 (HCT116): 100 nM
- IC50 (DU145): 100 nM
- IC50 (A549): 100 nM
- IC50 (H460): < 300 nM
- potential as inhibitors of CDC25 compared with the comparative examples (1, 2, 3, 4, 6 and 9) [1]: much higher potential

Compound: Cc1cc(=O)n2c3c(c4c(cc13)c(CO)cc(=O)n4C)OC2 [Example 1, nybomycin]
- IC50 (CDC25C; [2]): > 20000 nM
- IC50 (HCT116): 730 nM
- IC50 (DU145): 720 nM
- IC50 (H460): 230 nM

Further lines, with some results ahead:

- IC50 (CDC25C; [2]): 930 nM
Compound: Cc1cc(=O)[nH]c2c(O)c3c(cc12)c(CO)cc(=O)n3C [Example 7, 10-hydroxy-4-(hydroxymethyl)-1,6-dimethyl-pyrido[3,2-g]quinoline-2,8(1H,9H)-dione]
- potential as inhibitors of CDC25 compared with the comparative examples (1, 2, 3, 4, 6 and 9) [1]: much higher potential

- IC50 (CDC25C; [2]): 520 nM
Compound: Cc1cc(=O)n(C)c2c(O)c3c(cc12)c(C)cc(=O)n3O [Example 8, 1,10-dihydroxy-4,6,9-trimethylpyrido[3,2-g]-quinoline-2,8(1H,9H)-dione]
- potential as inhibitors of CDC25 compared with the comparative examples (1, 2, 3, 4, 6 and 9) [1]: much higher potential

- IC50 (CDC25C; [2]): 225000 nM
Compound: CCCc1c2c([nH]c(=O)c1C)C(=O)c1[nH]c(=O)c(C)c(CCC)c1C2=O [Example 9, 3,7-dimethyl-4,6-dipropylpyrido[3,2-g]-qujnoline-2,5,8,10(1H,9H)-tetraone; Diazaquinomycin A]

- IC50 (CDC25C; [2]): 850 nM
Compound: CCCc1c(C)c(=O)[nH]c2c(O)c3[nH]c(=O)c(C)c(CCC)c3cc12 [Example 10, 10-hydroxy-3,7-dimethyl-4,6-dipropylpyrido-[3,2-g]quinoline-2,8(1H,9H)-dione]
- potential as inhibitors of CDC25 compared with the comparative examples (1, 2, 3, 4, 6 and 9) [1]: much higher potential

- IC50 (CDC25C; [2]): 14500 nM
- IC50 (HCT116): 3000 nM
- IC50 (DU145): 3000 nM
- IC50 (A549): < 10000 nM
- IC50 (H460): < 10000 nM
Compound: Cc1cc(=O)n(C)c2c(O)c3c(cc12)c(C)cc(=O)n3C [Example 6, 10-hydroxy-1,4,6,9-tetramethylpyrido[3,2-g]-quinoline-2,8(1H,9H)-dione]

— patent EP2130831A1, “CDC25 inhibitors” (InterMed Discovery GmbH, priority 2008, dated 2009)
